# From patent US11066396B2 (priority 2016, dated 2021)
# What was measured:
# [1] = target: HDAC1 (Homo sapiens (Human), UniProt Q13547); conditions: read-out: HDAC1 IC50
# Protocol: Assay protocol: In brief, compounds were titrated in 100% DMSO via accoustic dispensing directly to the assay plate using the ECHO 550 [Labcyte]. HDAC enzymes at the concentrations indicated above were added in assay buffer to the assay plates containing the compounds using a Combi [Thermo Scientific]. The wells were mixed, and the plates were allowed to pre-incubate at ambient temperature for 3 h. After the 3 h, the appropriate substrate, at the concentrations indicated above, was added to the wells using a Combi. The wells were mixed, and the plates were allowed to incubate at ambient temperature for 1 h. After the 1 h, the appropriate Developer/stop solution was added to the wells using a Combi. The wells were mixed, and the plates were allowed to incubate at ambient temperature for 1 h. […] Data were analyzed using 4P curve fitting with Activity Base [IDBS] software.
# [2] = target: HDAC5 (Homo sapiens (Human), UniProt Q9UQL6); conditions: read-out: HDAC5 IC50
# [3] = target: HDAC8 (Homo sapiens (Human), UniProt Q9BY41); conditions: read-out: HDAC8 IC50
# Chain of HDAC8 (Q9BY41 whole entry): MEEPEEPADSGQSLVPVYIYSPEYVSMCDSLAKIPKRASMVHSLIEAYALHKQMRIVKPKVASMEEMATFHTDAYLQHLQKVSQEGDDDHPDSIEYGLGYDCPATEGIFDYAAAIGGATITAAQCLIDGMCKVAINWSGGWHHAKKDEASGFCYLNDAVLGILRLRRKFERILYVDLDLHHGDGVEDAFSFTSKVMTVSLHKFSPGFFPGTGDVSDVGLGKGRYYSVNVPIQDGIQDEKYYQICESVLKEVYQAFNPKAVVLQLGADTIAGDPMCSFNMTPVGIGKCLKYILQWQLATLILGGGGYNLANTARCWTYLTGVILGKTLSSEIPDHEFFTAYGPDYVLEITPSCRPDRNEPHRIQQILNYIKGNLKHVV
# Chain of HDAC5 (Q9UQL6 656-1122): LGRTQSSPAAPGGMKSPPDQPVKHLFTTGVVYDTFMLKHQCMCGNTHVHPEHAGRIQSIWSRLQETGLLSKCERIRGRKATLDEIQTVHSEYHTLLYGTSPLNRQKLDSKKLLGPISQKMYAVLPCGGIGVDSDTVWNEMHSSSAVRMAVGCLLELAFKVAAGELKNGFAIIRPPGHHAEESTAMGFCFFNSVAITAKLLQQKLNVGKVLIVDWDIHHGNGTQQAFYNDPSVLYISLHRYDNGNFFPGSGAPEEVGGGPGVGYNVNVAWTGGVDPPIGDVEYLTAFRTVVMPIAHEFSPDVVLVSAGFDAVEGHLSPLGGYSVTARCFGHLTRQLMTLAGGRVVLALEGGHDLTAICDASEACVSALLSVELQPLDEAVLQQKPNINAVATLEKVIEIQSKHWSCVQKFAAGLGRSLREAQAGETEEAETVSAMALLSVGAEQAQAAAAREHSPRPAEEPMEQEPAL
# Chain of HDAC1 (Q13547 whole entry): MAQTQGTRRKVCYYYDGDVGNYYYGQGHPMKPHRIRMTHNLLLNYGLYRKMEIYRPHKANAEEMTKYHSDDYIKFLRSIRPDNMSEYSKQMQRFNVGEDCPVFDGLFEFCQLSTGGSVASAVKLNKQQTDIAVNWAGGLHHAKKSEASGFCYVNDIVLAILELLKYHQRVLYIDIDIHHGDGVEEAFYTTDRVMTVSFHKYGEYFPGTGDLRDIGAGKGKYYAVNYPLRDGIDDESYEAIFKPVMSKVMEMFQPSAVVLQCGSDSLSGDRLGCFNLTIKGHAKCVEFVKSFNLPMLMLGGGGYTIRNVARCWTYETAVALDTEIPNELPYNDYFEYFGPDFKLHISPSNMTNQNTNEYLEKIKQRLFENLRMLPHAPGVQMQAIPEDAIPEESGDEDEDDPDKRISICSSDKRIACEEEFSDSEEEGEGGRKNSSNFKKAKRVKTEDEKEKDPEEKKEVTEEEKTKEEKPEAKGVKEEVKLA
Compound,IC50 [1],IC50 [2],IC50 [3]
"CC(C(=O)N(Cc1ccc(-c2noc(C(F)(F)F)n2)cn1)c1cccc(F)c1)c1ccn(C)n1 (racemic) [Example 58, N-(3-fluorophenyl)-2-(1-methyl-1H-pyrazol-3-yl)-N-((5-(5-(trifluoromethyl)-1,2,4-oxadiazol-3-yl)pyridin-2-yl)methyl)propanamide]",220 nM,730 nM,1700 nM
"O=C1CCC(c2ccccc2F)N1c1ccc(-c2noc(C(F)(F)F)n2)cc1F (racemic) [Example 118, 1-(2-fluoro-4-(5-(trifluoromethyl)-1,2,4-oxadiazol-3-yl)phenyl)-5-(2-fluorophenyl)pyrrolidin-2-one]",570 nM,130 nM,2500 nM
"O=C(C(Cc1ccc(-c2noc(C(F)(F)F)n2)cn1)c1cccc(C(F)(F)F)c1)N1CC[S+]([O-])CC1 (racemic) [Example 199, 4-(3-{5-[5-(trifluoromethyl)-1,2,4-oxadiazol-3-yl]pyridin-2-yl}-2-[3-(trifluoromethyl)phenyl]propanoyl)-llambda~4~,4-thiazinan-1-one]",4100 nM,2100 nM,9900 nM
"CC(Oc1cc(-c2noc(C(F)(F)F)n2)ccn1)c1nc2ccccc2[nH]1 (racemic) [Example 203, 2-[1-({4-[5-(trifluoromethyl)-1,2,4-oxadiazol-3-yl]pyridin-2-yl}oxy)ethyl]-1H-benzimidazole]",130 nM,130 nM,900 nM
"CC(Oc1nccc(-c2noc(C(F)(F)F)n2)c1Cl)c1cccnc1 (racemic) [Example 256, 3-chloro-2-[1-(pyridin-3-yl)ethoxy]-4-[5-(trifluoromethyl)-1,2,4-oxadiazol-3-yl]pyridine]",3300 nM,200 nM,2300 nM
"O=C1NCCCC1NCc1ccc(-c2noc(C(F)(F)F)n2)cn1 (racemic) [Example 458, 3-[({5-[5-(trifluoromethyl)-1,2,4-oxadiazol-3-yl]pyridin-2-yl}methyl)amino]piperidin-2-one]",8300 nM,290 nM,2800 nM
"CC(C)C(=O)NC(Cc1ccc(-c2noc(C(F)(F)F)n2)cn1)c1cccc(C(F)(F)F)c1 (racemic) [Example 478, 2-methyl-N-(2-{5-[5-(trifluoromethyl)-1,2,4-oxadiazol-3-yl]pyridin-2-yl}-1-[3-(trifluoromethyl)phenyl]ethyl)propanamide]",680 nM,500 nM,45000 nM
"CCCC(=O)NC(Cc1ccc(-c2noc(C(F)(F)F)n2)cn1)c1cccc(C(F)(F)F)c1 (racemic) [Example 479, N-(2-{5-[5-(trifluoromethyl)-1,2,4-oxadiazol-3-yl]pyridin-2-yl}-1-[3-(trifluoromethyl)phenyl]ethyl)butanamide]",610 nM,440 nM,45000 nM
"COCC(=O)NC(Cc1ccc(-c2noc(C(F)(F)F)n2)cn1)c1cccc(C(F)(F)F)c1 (racemic) [Example 480, 2-methoxy-N-(2-{5-[5-(trifluoromethyl)-1,2,4-oxadiazol-3-yl]pyridin-2-yl}-1-[3-(trifluoromethyl)phenyl]ethyl)acetamide]",670 nM,620 nM,5300 nM
"CC1(C(=O)NC(Cc2ccc(-c3noc(C(F)(F)F)n3)cn2)c2cccc(C(F)(F)F)c2)COC1 (racemic) [Example 482, 3-methyl-N-(2-{5-[5-(trifluoromethyl)-1,2,4-oxadiazol-3-yl]pyridin-2-yl}-1-[3-(trifluoromethyl)phenyl]ethyl)oxetane-3-carboxamide]",790 nM,480 nM,8500 nM
"O=C(NC(Cc1ccc(-c2noc(C(F)(F)F)n2)cn1)c1cccc(C(F)(F)F)c1)C1CCOCC1 (racemic) [Example 483, N-(2-{5-[5-(trifluoromethyl)-1,2,4-oxadiazol-3-yl]pyridin-2-yl}-1-[3-(trifluoromethyl)phenyl]ethyl)oxane-4-carboxamide]",630 nM,510 nM,6100 nM
"O=C(NC(Cc1ccc(-c2noc(C(F)(F)F)n2)cn1)c1cccc(C(F)(F)F)c1)c1ncccn1 (racemic) [Example 484, N-(2-{5-[5-(trifluoromethyl)-1,2,4-oxadiazol-3-yl]pyridin-2-yl}-1-[3-(trifluoromethyl)phenyl]ethyl)pyrimidine-2-carboxamide]",600 nM,720 nM,2500 nM
"O=C(CN1CCOCC1)NC(Cc1ccc(-c2noc(C(F)(F)F)n2)cn1)c1cccc(C(F)(F)F)c1 (racemic) [Example 485, 2-(morpholin-4-yl)-N-(2-{5-[5-(trifluoromethyl)-1,2,4-oxadiazol-3-yl]pyridin-2-yl}-1-[3-(trifluoromethyl)phenyl]ethyl)acetamide]",1100 nM,1100 nM,11000 nM
"O=C(NC(Cc1ccc(-c2noc(C(F)(F)F)n2)cn1)c1cccc(C(F)(F)F)c1)c1cccnc1 (racemic) [Example 487, N-(2-{5-[5-(trifluoromethyl)-1,2,4-oxadiazol-3-yl]pyridin-2-yl}-1-[3-(trifluoromethyl)phenyl]ethyl)pyridine-3-carboxamide]",670 nM,380 nM,5300 nM
"O=C1COC[C@@H](c2ccccc2)N1c1ccc(-c2noc(C(F)(F)F)n2)c(F)c1 [Example 2, (R)-4-(3-Fluoro-4-(5-(trifluoromethyl)-1,2,4-oxadiazol-3-yl)phenyl)-5-phenylmorpholin-3-one]",480 nM,18 nM,4600 nM
"Cc1noc([C@@H]2CCC(=O)N2c2ccc(-c3noc(C(F)(F)F)n3)c(F)c2F)n1 [Example 12, (S)-1-(2,3-Difluoro-4-(5-(trifluoromethyl)-1,2,4-oxadiazol-3-yl)phenyl)-5-(3-methyl-1,2,4-oxadiazol-5-yl)pyrrolidin-2-one]",2000 nM,11 nM,6000 nM
"O=C1OC[C@@H](c2ccccc2)N1c1cc(F)c(-c2noc(C(F)(F)F)n2)cc1F [Example 16, (R)-3-(2,5-Difluoro-4-(5-(trifluoromethyl)-1,2,4-oxadiazol-3-yl)phenyl)-4-phenyloxazolidin-2-one]",1000 nM,19 nM,6000 nM
"O=C(C1CCS(=O)(=O)CC1)N(Cc1ccc(-c2noc(C(F)(F)F)n2)cc1)c1cccc(C(F)(F)F)c1 [Example 30, N-(4-(5-(Trifluoromethyl)-1,2,4-oxadiazol-3-yl)benzyl)-N-(3-(trifluoromethyl)phenyl)tetrahydro-2H-thiopyran-4-carboxamide 1,1-dioxide]",1340 nM,1200 nM,4300 nM
"O=C1CNCC(c2ccccc2)N1c1ccc(-c2noc(C(F)(F)F)n2)cc1 (stereo not drawn) [Example 39, 6-phenyl-1-(4-(5-(trifluoromethyl)-1,2,4-oxadiazol-3-yl)phenyl)piperazin-2-one]",550 nM,25 nM,1600 nM
"O=C1CCCC(c2ccccc2)N1c1ccc(-c2noc(C(F)(F)F)n2)cc1 (stereo not drawn) [Example 40, 6-phenyl-1-(4-(5-(trifluoromethyl)-1,2,4-oxadiazol-3-yl)phenyl)piperidin-2-one]",410 nM,34 nM,800 nM
"FC(F)c1cc(OCc2ccc(-c3noc(C(F)(F)F)n3)cn2)ncn1 [Example 306, 4-(difluoromethyl)-6-({5-[5-(trifluoromethyl)-1,2,4-oxadiazol-3-yl]pyridin-2-yl}methoxy)pyrimidine]",1300 nM,220 nM,–
"Cc1cncnc1OCc1ccc(-c2noc(C(F)(F)F)n2)cn1 [Example 307, 5-methyl-4-({5-[5-(trifluoromethyl)-1,2,4-oxadiazol-3-yl]pyridin-2-yl}methoxy)pyrimidine]",2200 nM,620 nM,–
"COc1ncccc1OCc1ccc(-c2noc(C(F)(F)F)n2)cn1 [Example 308, 2-methoxy-3-({5-[5-(trifluoromethyl)-1,2,4-oxadiazol-3-yl]pyridin-2-yl}methoxy)pyridine]",740 nM,310 nM,–
"FC(F)(F)c1nc(-c2ccc(COc3cc(Cl)ncn3)nc2)no1 [Example 309, 4-chloro-6-({5-[5-(trifluoromethyl)-1,2,4-oxadiazol-3-yl]pyridin-2-yl}methoxy)pyrimidine]",4200 nM,450 nM,–
"FC(F)(F)c1nc(-c2ccc(COc3ccc(Cl)nc3)nc2)no1 [Example 310, 2-chloro-5-({5-[5-(trifluoromethyl)-1,2,4-oxadiazol-3-yl]pyridin-2-yl}methoxy)pyridine]",2400 nM,770 nM,–
"FC(F)(F)c1nc(-c2ccc(COc3ccc4cnccc4n3)nc2)no1 [Example 311, 2-({5-[5-(trifluoromethyl)-1,2,4-oxadiazol-3-yl]pyridin-2-yl}methoxy)-1,6-naphthyridine]",880 nM,540 nM,–
"CC1(C)COCCN1C(=O)[C@@H]1CCC(=O)N1c1ccc(-c2noc(C(F)(F)F)n2)c(F)c1 [Example 344, (5S)-5-[(3,3-dimethylmorpholin-4-yl)carbonyl]-1-{3-fluoro-4-[5-(trifluoromethyl)-1,2,4-oxadiazol-3-yl]phenyl}pyrrolidin-2-one]",45000 nM,1900 nM,–
"CC1(C)C(=O)NCCN1C(=O)[C@@H]1CCC(=O)N1c1ccc(-c2noc(C(F)(F)F)n2)c(F)c1 [Example 345, 4-(1-{3-fluoro-4-[5-(trifluoromethyl)-1,2,4-oxadiazol-3-yl]phenyl}-5-oxo-L-prolyl)-3,3-dimethylpiperazin-2-one]",43000 nM,1500 nM,–
"CCS(=O)(=O)N(Cc1ccc(-c2noc(C(F)(F)F)n2)cc1)c1cccc(C(F)(F)F)c1 [Example 491, N-({4-[5-(trifluoromethyl)-1,2,4-oxadiazol-3-yl]phenyl}methyl)-N-[3-(trifluoromethyl)phenyl]ethanesulfonamide]",820 nM,140 nM,–
